Tests used:
Assay type in all cases: physicochemical
[1] = Laboratory study of Ostwald Ripening: particle size growth of size-reduced suspensions stored at different temperatures, LSW model fit
Procedure: 4. In order to confirm that the observed PS instability was being caused by OR phenomenon, a laboratorial study was designed. In this study, two suspensions of MFM were size-reduced via HPH to a different PS (D50=2.0 μm and 3.0 μm) and, afterwards, stored at different temperatures (5° C. and 45° C.). In all cases, PS growth was monitored by considering […] sampling time points (24, 72, 144 and 168 h).
Before fitting the obtained data, a literature review was conducted; several models can be found for OR modeling, with most of them being modifications of the Lifshitz, Slyozov and Wagner (LSW) theory (Eq. 1), which is a kinetic model that translates an isothermal variation of the more general problem (M. Mrotzek, 2008): […]
Based on the above equation, two important observations (M. Mrotzek, 2008) (V. Sadtler, 2002) are expected when in the presence of OR: i) a cubic or quadratic growth (depending on the limiting step) and ii) a more pronounced increase of K for higher temperatures. As shown in FIG. 2 (left plot), both previous observations are valid for the current case-study, thus supporting the presence of OR; in this plot, r^3-r0^3 was represented as a function of time and the K value determined by performing a linear regression where Eq. 1 was assumed as the theoretical model; as shown in […] (right plot) a good correlation coefficient was obtained (R^2=0.94).

[2] = XRPD analysis of crystalline form after DSD
Excerpt: 8. The crystalline form was kept unchanged, as confirmed by XRPD analysis. 9. Through this delicate balance, stabilization of the suspension is accomplished (FIG. 3) in a simpler, effective, reproducible and easily scalable way; additionally, no impact on the polymorphic form was noticeable by XPRD analysis.

[3] = Particle size (in-process control) after high pressure homogenization and during spray drying, with and without DSD
Procedure: 1. Mometasone furoate monohydrate (2330 g) was suspended in water (23000 g) and stirred for 5 hours in order to obtain a uniform suspension; afterwards, it was fed to a lab scale HPH apparatus operating at pressures ranging from 757.5 to 1363.5 bar in recirculation mode (returning the discharge of the HPH to the stirred vessel inlet), having this step ended with a Dv50˜2 μm after 63 hours of operation;
2. After the homogenization step described in point 1. above, particle size of the active pharmaceutical ingredient was within target and the suspension was fed to a lab scale spray dryer in order to isolate the active pharmaceutical ingredient in the form of a powder;
3. […] Due to this unstable behavior (the final material properties were trending out of targets) the batch had to be interrupted to accommodate an investigation.
6. In order to move forward with the manufacturing of the mentioned batch and following ones, the dynamic suspension drying (DSD) was applied targeting the stabilization of the suspension during drying for that purpose the suspension was recycled at a moderated pressure of 455 bar.

Q: What does the source list for `C[C@@H]1C[C@H]2[C@@H]3CCC4=CC(=O)C=C[C@]4(C)[C@@]3(Cl)[C@@H](O)C[C@]2(C)[C@@]1(OC(=O)c1ccco1)C(=O)CCl` [Mometasone furoate monohydrate]?
A: Ostwald Ripening at 5° C. for target D50 range ([1]; D50 ~2 μm, 5° C., water as anti-solvent): still significant; Ostwald Ripening rate constant K at 5° C. compared to 45° C. ([1]; suspensions size-reduced to D50 = 2.0 μm and 3.0 μm, stored at 5° C. and 45° C., up to 168 h): more than five times lower; crystalline form after DSD [2]: unchanged; Dv50 at end of HPH step ([3]; suspension in water, HPH at 757.5 to 1363.5 bar in recirculation mode, after 63 hours of operation): ~2 μm; particle size trend during isolating step (spray drying) without recirculation ([3]; suspension kept under stirring in feed vessel, no DSD, FIG. 2): increasing values of particle size were observed over time; Dv50 of isolated product manufactured through DSD ([3]; suspension recycled to HPH at 455 bar during drying, on average, FIG. 4): ~2 μm
